The source of these data is patent publication US6664290B1, “Oral or vaginal administration of mesoprostol in third stage labor” (University College London, priority 1994, dated 2003).

Each structure is given as a SMILES string. Where two headings read alike, the source gives them in different places.

For data set [1] the following is noted: cited from earlier work; for Time of peak plasma levels: oral, substantially the same if administered vaginally.
The subject of data set [2] is blood pressure. As to conditions: patients; about 400 μg; cited from earlier work.
Data set [3] concerns blood pressure. As to conditions: animal studies; about 800 μg in a single dose; cited from earlier work.
For data set [4], the system named is blood pressure. Kind of data set: Blood pressure effect of Misoprostol in humans. In kind it is in vivo, human. As to conditions: administered to humans; dosages up to 800 μg.
Data set [5] relates to women in the third stage of labour. In kind it is in vivo. The text has this:
The study protocol was reviewed and approved by the local Ethics Committee. Information sheets explaining the aims of the trial were distributed to potential participants either in the antenatal classes, antenatal clinics, and the Day Assessment Area. On admission to labour ward women were reminded about the trial and a written informed consent was obtained if they still wished to participate in the study.
The main objective of this study was to estimate the incidence of primary postpartum haemorrhage (PPH). This was defined as estimated blood loss of or more than 500 ml. Other measures of blood loss were also considered e.g. severe PPH i.e. >1000 ml; secondary PPH (after 24 hours); need for blood transfusion; use of therapeutic oxytocics (i.e. the need for extra oxytocics); length of third stage; incidence of manual removal of placenta; the need for subsequent evacuation of the retained products of conception; and the change in haemoglobin and packed cell volume in those who had instrumental delivery and/or who had blood loss of 500 ml or more compared to the Haemoglobin done late in pregnancy. Potential adverse effects of the drug used were also recorded e.g. incidence of vomiting, diarrhoea, shivering and hypertension (defined as diastolic blood pressure >100 or Systolic Blood pressure >150). All of these measures were documented by the midwife on call on a specially designed form with demographic information and information related to the type and circumstances of delivery.
The principle criteria for exclusion were: placenta praevia, multiple pregnancy, intrauterine death, gestational age less than 32 weeks gestation, women with previous PPH and women in their sixth pregnancy or more. In this pilot study, women with hypertension, preeclampsia or pregnancy induced hypertension were also excluded.
Syntometrine was not given but midwives were instructed to do so if they felt there was a clinical indication. Otherwise the delivery of the placenta was managed according to hospital policy (active management policy). Blood loss was estimated clinically by the attendant midwife or obstetrician. A sample of venous blood was obtained two days later after birth for haemoglobin and packed cell volume assessment from women who had instrumental delivery or from those who had blood loss of 500 ml or more. A record was kept of the last recorded blood pressure and temperature before birth and one hour after delivery.
Categorical variables are summarised as numbers and percentages, whereas continuous variables that are normally distributed are presented as means and standard deviations (SD), continuous variables that are not normally distributed are presented as medians and interquartile ranges (IQR). Comparisons between the systolic, diastolic blood pressure, haemoglobin, haematocrit and temperature before and after delivery were conducted via the paired t-test. Association between two categorical variables was assessed via Chi-square testing. The significance level was set to the 5% level.

For data set [6], the system named is uterus (uterotonic contraction). As to conditions: intramuscular route, as part of Syntometrine; cited from earlier work.
The mark [7] stands for this setting: after delivery (one hour), 600 μg oral, n = 184.
Setting [8] is: after minus before delivery, n = 184.
Where [9] appears, read: before delivery (last recorded, before drug), n = 184.
The mark [10] stands for this setting: one hour after delivery vs last measured before delivery, not statistically significant.

Regarding `CCCCC(C)(O)C/C=C/[C@H]1[C@H](O)CC(=O)[C@@H]1CCCCCCC(=O)O` (mixture of isomers) [Misoprostol acid], in data set [1], the “Time of peak plasma levels” value is reported as “less than fifteen”.
Take `CCCCC(C)(O)C/C=C/[C@H]1[C@H](O)CC(=O)[C@@H]1CCCCCCC(=O)OC` (mixture of isomers) [Misoprostol]: in data set [1] (extensive metabolism during and/or prior to gastro intestinal absorption), the “Unchanged drug in the plasma or urine after use” value was “no unchanged drug is detected”. Moreover, the “Time of peak plasma levels” value in data set [1] is listed as “less than fifteen”. In addition, in the data set on blood pressure [2], the “Effect on blood pressure” value is listed as “substantially normotensive”. Moreover, the “Effect on blood pressure” value in the data set with blood pressure [3] was “mild hypotensive effect”. In addition, the Hypertensive effect entry in the data set with blood pressure [4] is “not hypertensive”. In addition, the “Number with blood loss >= 500 ml” value in data set [5] (600 μg Misoprostol orally immediately after delivery, n = 237) is reported as 13. Besides, in data set [5] (600 μg oral), the Cases of infection result was “no cases”, the “Incidence of shivering: patients who had epidural anaesthesia vs those who had not” value is given as “no significant difference” and the “Incidence of vomiting relative to that reported when syntometrine is used” value is recorded as “almost half”. In addition, in data set [5] (600 μg oral, n = 237), the “% with blood loss > 1000 ml” value is given as “(0%)”, the “% with blood loss greater than 500” value is 3%, the “% with diastolic - 100 (mm Hg)” value was “(0%)” and the “% with haemoglobin < 9 (g/l)” value is “(2%)”. Also, in data set [5] (600 μg oral, n = 237), the “% with systolic - 150 (mm Hg)” value is listed as “(1%)”, the “% with third stage length >= 30 minutes” value is reported as “(0.5%)”, the “Median (IQR) of blood loss” value came to 200 mL and the “Median (IQR) third stage length” value is listed as 5 min. In data set [5] (600 μg oral, n = 237), the “Number who had shivering” value is reported as 148, the “Number with blood loss > 1000 ml” value stood at 0, the “Number with blood loss greater than 500” value is on record as 6 and the “Number with diastolic - 100 (mm Hg)” value came to 0. Further, in data set [5] (600 μg oral, n = 237), the “Number with haemoglobin < 9 (g/l)” value worked out at 4, the “Number with manual removal of placenta” value is 4, the “Number with repeat syntometrine injection” value worked out at 12 and the “Number with systolic - 150 (mm Hg)” value is recorded as 2. In data set [5] (600 μg oral, n = 237), the “Number with third stage length >= 30 minutes” value stood at 1 and the “Patients for whom blood transfusion was required” value came out at 2 patients. Also, the “Number who had diarrhoea (loose stool)” value in data set [5] (600 μg oral, n = 237, first 24 hours after delivery) came out at 7. The molecule also registered a Number who vomited in data set [5] (600 μg oral, n = 237, first hour after delivery) of 19. Also, in data set [5] (600 μg oral, self-limiting, twenty minutes after swallowing the tablets), the Duration of shivering was 10 to 15 min. Besides, the “Temperature, mean” value in data set [5] (after delivery (one hour), 600 μg oral, n = 182) is listed as 37.1 C. For the same molecule, in data set [5] (setting [7]), the “Diastolic blood pressure, mean” value is 73.0 mm Hg and the “Systolic blood pressure, mean” value amounted to 118.4 mm Hg. The “Haematocrit, mean” value in data set [5] (after delivery, 600 μg oral, n = 73) is 0.33. The “Haematocrit, mean difference” value in data set [5] (after minus before delivery, n = 73) is recorded as −0.01. Moreover, the “Temperature, mean difference (increase)” value in data set [5] (after minus before delivery, n = 182) turned out to be 0.5 C. Besides, in data set [5] (setting [8]), the “Diastolic blood pressure, mean difference” value is −0.8 mm Hg and the “Systolic blood pressure, mean difference” value was −1.0 mm Hg. In addition, in data set [5] (setting [9]), the “Diastolic blood pressure, mean” value came out at 73.8 mm Hg and the “Systolic blood pressure, mean” value was determined as 119.3 mm Hg. In addition, the “Haematocrit, mean” value in data set [5] (before delivery, n = 73) was determined as 0.34. Further, in data set [5] (before delivery, n = 182), the “Temperature, mean” value is reported as 36.6 C. Besides, in data set [5] (setting [10]), the “Mean reduction of diastolic blood pressure (SE)” value is 0.8 (0.6) mm Hg and the “Mean reduction of systolic blood pressure (SE)” value is reported as 1.0 (SE=0.9) mm Hg. Besides, in data set [5] (women who were normotensive before labour, 600 μg oral), the Hypertensive effects result is reported as “could not identify any hypertensive effects”.
`CC[C@H](C)[C@@H]1NC(=O)[C@H](Cc2ccc(O)cc2)NC(=O)[C@@H](N)CSSC[C@@H](C(=O)N2CCC[C@H]2C(=O)N[C@@H](CC(C)C)C(=O)NCC(N)=O)NC(=O)[C@H](CC(N)=O)NC(=O)[C@H](CCC(N)=O)NC1=O` [syntocinon]: the Time to action result in data set [6] was “about 2.5 minutes”.
